Source: patent publication US20110229553A1, “Plant Extract with Pharmacological Profile for Treating or Preventing Diseases, Dysfunctions and Disorders of the Central Nervous System, Neurodegenerative Disorders and Sequel from Vascular Dementia” (priority 2010, published 2011)

Tested on: BALB/c mice MPTP induced tremor
Test: MPTP-induced tremor in BALB/c mice
Type: in vivo
Settings: extract 25 or 50 mg/kg, apomorphine 3 mg/kg
Experimental: Animals: Male adult mice, C57BL/6 and BALB/c strain (FEEPS) were used and maintain with water and foot ad libitum under controlled environment.
Treatments in BALB/c: MPTP (1-methyl-4-phenyl-1,2,3,6-tetrahydropyridine) 60 mg/kg (2×30 mg/kg) was administered intraperitonially (i.p.), twice, 16 h apart. Saline, DMSO 20%, Ptychopetalum olacoides extract 50 mg/kg (2×25 mg/kg), POEE 25 mg/kg (2×12.5 mg/kg) and apomorphine 3 mg/kg (2×1.5 mg/kg) were given 30 min before each MPTP administration. The animals received the first injections at 17:00 h and the second at 09:00 h the next day. The volume of injection was […] body weight. N=6.
Tremor in C57BL/6 and in BALB/c: Tremors were observed immediately after the administration of the second MPTP dose, with animals placed in a clear Plexiglas box (20 cm×20 cm×20 cm) for 45 min; tremor scores were noted every 3 min, with the highest score considered for the period. […]

For `CN1CCc2cccc3c2[C@H]1Cc1ccc(O)c(O)c1-3` [apomorphine], the total tremor duration was “not affected”.
